Laboratory results reported in patent US20120108855A1, “INCREASED EXPRESSION OF TRANSHYDROGENASE GENES AND THEIR USE IN ETHANOL PRODUCTION” (UNIVERSITY OF FLORIDA RESEARCH FOUNDATION, INC., priority 2009, published 2012).
Read-outs that look alike come from different tables or passages of the source.

Legend:
[1] = test system: LY180; test: pH-controlled xylose fermentation with 5-HMF, LY180; format: cell-based, Escherichia coli; details: 1.0 g l^-1 5-HMF, 100 g l^-1 xylose
Experimental: (§1) Strains and plasmids used in this study have been previously described (70 and 23). These include LY180 (an ethanologenic derivative of E. coli), EMFR9 (furfural-tolerant derivative of LY180), LY180ΔyqhD, LY180ΔdkgA, LY180ΔyqhD ΔdkgA, pLOI4301 containing yqhD. Plasmids pLOI4303 containing dkgA (48), and pLOI4316 containing pntAB (70) were also used. Cultures were grown at 37° C. in AM1 minimal media (23) containing 20 g 1^−1 xylose (solid medium), 50 g l^−1 xylose (Bioscreen C growth analyzer and tube cultures), or 100 g 1^−1 (pH-controlled fermentations).
(§2) For fermentation experiments, seed cultures of LY180 and EMFR9 were grown overnight in small fermentors (37° C., 200 rpm) containing 350 ml of AM1 medium. Broth was maintained at pH 6.5 by the automatic addition of 2 N KOH. Upon reaching mid-log phase, experimental fermenters were inoculated to an initial cell density of 0.1 OD550nm. (33 mg dry cell weight 1^−1). Cell mass (OD550nm) and furan levels were monitored at 12-h intervals as described previously (20).

[2] = test system: EMFR9; test: pH-controlled xylose fermentation with 5-HMF, EMFR9; format: cell-based, Escherichia coli
Experimental: as §1, §2

[3] = test system: LY180; test: 5-HMF tolerance in tube cultures, LY180, with cysteine supplements; format: cell-based, Escherichia coli
Experimental: FIG. 17. Effect of L-cysteine on 5-HMF tolerance of LY180. Experiments were performed in tube cultures with AM1 medium containing 50 g l^−1 xylose and 5-HMF (24 h incubation). Cultures were supplemented with filter-sterilized L-cysteine as indicated. All data are plotted as a mean with standard deviation (n=4). A. 1.0 g l^−1 5-HMF; B. 2.0 g 1^−1 5-HMF.
Tolerance to HMF was tested using 13×100 mm closed tubes containing 4 ml AM1 and 5-HMF as indicated. When appropriate, antibiotics were included for plasmid maintenance. Tubes were inoculated to an initial density of 0.05 OD550nm. Growth was measured after incubation (60 rpm) for 48 h using a Spectronic 20D+ spectrophotometer (Thermo, Waltham, Mass.). To examine the effects of pntAB on furan tolerance, a multiwall plate containing 400 μl of AM1 (and 5-HMF or furfural) per well was inoculated as above. OD(420-580nm bandwidth) was measured for 72 h using a Bioscreen C growth analyzer (Oy Growth Curves, Helsinki, Finland).

[4] = test system: E. coli LY180; format: cell-based, Escherichia coli; details: for relief of furfural inhibition of growth by alternative sulfur source / furfural resistance (growth of LY180) with individual amino acid: AM1 medium; for furfural resistance (growth of LY180) with individual amino acid: amino acid 0.1 mM, 50 g liter^-1 xylose, 37 C, 48 hours
Experimental: Furfural tolerance was examined by measuring growth in standing tubes with 4 mL total volume of AM1 and 50 g liter^−1 filter-sterilized xylose as described previously (48). Tubes were incubated at 37° C. and measured after 24 hours and 48 hours. Values reported are an average of 4 measurements.
All 20 amino acids were individually tested for their ability to improve the growth of LY180 in AM1 mineral salts medium (FIG. 9A). A concentration of 0.1 mM was selected roughly based on the cellular content of individual amino acids (50).
During growth in AM1 medium containing 1 g liter^−1 furfural, the effects of alternative sulfur sources (L-cysteine, D-cysteine, taurine, and sodium thiosulfate) that enter metabolism at different levels of reduction (FIG. 9D) was compared. Note that 4 NADPH molecules and two reductase enzymes (CysH and CysIJ) are required to fully reduce sulfate prior to assimilation into cysteine. […] D-cysteine cannot be incorporated directly and is first catabolized to H2S (49). Thiosulfate also serves as a source of reduced sulfur for incorporation by CysM (47). Taurine is catabolized to sulfite in the cytoplasm and must be reduced by sulfite reductase (CysIJ and 3 NADPH molecules) prior to assimilation into cysteine (54).

[5] = target: YqhD (Escherichia coli, UniProt Q46856); details: cited from earlier work
Chain of YqhD (Q46856 whole entry): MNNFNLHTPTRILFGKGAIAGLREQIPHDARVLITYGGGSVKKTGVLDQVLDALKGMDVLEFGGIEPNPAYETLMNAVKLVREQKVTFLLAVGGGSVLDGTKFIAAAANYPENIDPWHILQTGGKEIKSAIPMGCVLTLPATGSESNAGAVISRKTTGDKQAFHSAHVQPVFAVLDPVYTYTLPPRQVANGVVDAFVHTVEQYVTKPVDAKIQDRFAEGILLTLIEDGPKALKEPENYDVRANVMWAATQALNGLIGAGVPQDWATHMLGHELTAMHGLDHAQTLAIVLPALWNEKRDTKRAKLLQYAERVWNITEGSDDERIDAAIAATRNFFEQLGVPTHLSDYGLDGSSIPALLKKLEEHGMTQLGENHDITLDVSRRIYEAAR

[6] = target: DkgA (Escherichia coli, UniProt Q46857); details: read-out: apparent Km for NADPH; cited from earlier work
Chain of DkgA (Q46857 whole entry): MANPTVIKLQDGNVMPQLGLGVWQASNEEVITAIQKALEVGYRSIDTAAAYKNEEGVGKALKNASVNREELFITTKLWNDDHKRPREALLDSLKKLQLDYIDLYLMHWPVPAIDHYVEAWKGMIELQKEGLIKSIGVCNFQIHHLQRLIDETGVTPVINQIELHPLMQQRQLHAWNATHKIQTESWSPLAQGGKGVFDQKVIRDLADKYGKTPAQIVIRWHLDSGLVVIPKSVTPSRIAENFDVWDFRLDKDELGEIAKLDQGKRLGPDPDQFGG

[7] = target: sulfite reductase (CysIJ) (Escherichia coli, UniProt P38038); details: read-out: Km for NADPH; cited from earlier work
Chain of sulfite reductase (CysIJ) (P38038 2-599): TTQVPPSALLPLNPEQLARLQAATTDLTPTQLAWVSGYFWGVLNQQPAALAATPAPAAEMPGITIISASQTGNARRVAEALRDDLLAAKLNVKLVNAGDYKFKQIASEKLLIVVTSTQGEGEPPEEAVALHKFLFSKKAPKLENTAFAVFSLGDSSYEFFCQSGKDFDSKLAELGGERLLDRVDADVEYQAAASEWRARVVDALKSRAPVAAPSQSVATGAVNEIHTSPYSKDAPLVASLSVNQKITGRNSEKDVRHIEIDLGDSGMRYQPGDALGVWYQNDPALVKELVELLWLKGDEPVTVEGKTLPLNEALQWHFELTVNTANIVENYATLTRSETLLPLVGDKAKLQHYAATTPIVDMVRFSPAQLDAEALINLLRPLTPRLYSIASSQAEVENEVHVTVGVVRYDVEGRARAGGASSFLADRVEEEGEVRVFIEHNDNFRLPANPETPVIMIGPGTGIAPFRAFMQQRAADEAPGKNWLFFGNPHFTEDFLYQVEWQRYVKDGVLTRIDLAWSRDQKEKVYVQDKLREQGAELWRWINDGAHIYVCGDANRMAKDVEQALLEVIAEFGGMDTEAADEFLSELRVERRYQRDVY
Chain of sulfite reductase (CysIJ) (P17846 2-570, further chain): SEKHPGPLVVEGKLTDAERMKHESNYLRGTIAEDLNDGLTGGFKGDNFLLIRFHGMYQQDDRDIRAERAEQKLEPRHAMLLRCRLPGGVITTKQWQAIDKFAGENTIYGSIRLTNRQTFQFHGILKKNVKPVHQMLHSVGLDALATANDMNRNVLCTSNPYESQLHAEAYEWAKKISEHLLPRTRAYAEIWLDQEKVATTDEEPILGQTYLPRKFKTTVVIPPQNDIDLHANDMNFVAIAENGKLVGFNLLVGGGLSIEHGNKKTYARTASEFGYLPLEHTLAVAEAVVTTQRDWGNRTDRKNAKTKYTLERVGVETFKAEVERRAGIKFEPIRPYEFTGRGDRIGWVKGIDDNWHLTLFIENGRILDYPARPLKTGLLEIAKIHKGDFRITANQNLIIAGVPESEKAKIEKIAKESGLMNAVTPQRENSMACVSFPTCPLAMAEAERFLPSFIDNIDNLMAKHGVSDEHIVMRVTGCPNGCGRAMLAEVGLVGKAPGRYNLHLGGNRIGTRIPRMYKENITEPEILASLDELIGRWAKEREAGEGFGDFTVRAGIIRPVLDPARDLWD

[8] = test system: E. coli LY180; format: cell-based, Escherichia coli; details: amino acid 0.5 mM, 1 g liter^-1 furfural, AM1 medium, 48 hours
[9] = Stability of furfural in mineral salts medium; format: physicochemical; details: 48 incubation at 37 C
Experimental: Protective concentrations of cysteine (0.05 mM) were 200-fold lower than that of 1 g liter^−1 furfural (10 mM).

[10] = test system: E. coli LY180; test: Microarray analysis of LY180 after furfural addition; format: cell-based, Escherichia coli
Experimental: Cultures were grown in small fermenters to a density of 670 mg dcw liter^−1. An initial sample was removed that served as a control. Furfural was immediately added from a 50 g liter^−1 aqueous stock (0.5 g liter^−1 final concentration) and incubation continued for 15 minutes prior to a second sampling. Samples were rapidly cooled in an ethanol-dry ice bath, harvested by centrifugation at 4° C., resuspended in Qiagen RNA Later and stored at −80° C. RNA was extracted using a Qiagen RNeasy Mini Kit, treated with DNase I and purified by phenol/chloroform extraction and ethanol precipitation. RNA was sent to NimbleGen (Madison, Wis.) for microarray comparisons using probes designed for E. coli K12. Each sample consisted of pooled material from four fermenters. The complete experiment was performed twice and the data was averaged (8 fermentors). Data was analyzed using ArrayStar (DNA Star, Madison, Wis.) and SimPheny software (Genomatica Inc., San Diego, Calif.). Expression ratios are presented as the average of the two pooled datasets.
Message levels were compared in actively growing cells before and 15 min after the addition of 0.5 g liter^−1 furfural. A water control was also included for comparison. […]

[11] = test system: LY180 strains; test: Growth of LY180 strains carrying plasmids in the presence of furfural; format: cell-based, Escherichia coli; details: 0.10% furfural, after 48 hours
Experimental: LY 180 strains were grown on LB glucose ampicillin plates overnight and each were used to inoculate a tube of AM1 xylose to 3-4 OD. This culture was immediately used to inoculate […] capped tubes containing 4 mL AM1 5% xylose, ampicillin, and an indicated concentration of furfural to 0.05 initial OD. Cultures were grown in a water bath at 37 C and OD 500 nm readings were taken after 24 and 48 hours.
PntAB is a proton translocating transhydrogenase that is not known to function during fermentative growth but is potentially capable of increasing the pool of NADPH (52). In examples 2 and 3, the E. coli […] transhydrogenase PntAB was cloned into pTrc99a and confirmed by sequencing. PntAB with native ribosomal binding site and rho dependent terminator was polymerase chain reaction (PCR) amplified from E. coli strain LY180 genomic DNA using primers with HindIII digestible ends. The PCR product and pTrc099a were HindIII digested, purified using a Qiagen Qiaprep Spin Miniprep Kit, and ligated together using T4 Quick DNA ligase. After transforming the resulting vector into TOP10F′, the plasmid was extracted and used to transform LY180. Orientation was verified by PCR analysis. The empty vector served as a control. Inducer was added prior to inoculation. The growth of LY180 strains carrying plasmids having increasing expression of pntA and pntB genes was compared (FIG. 2A-2B). […]

## O=Cc1ccc(CO)o1 [5-HMF, 5-hydroxymethyl furfural]
[1]
  growth of LY180: completely inhibited
[2]; 1.0 g l^-1 5-HMF, fermentation
  effect on cell yield or ethanol yield of EMFR9: no detrimental effect
[2]; 2.5 g 5-HMF l^-1, fermentation
  ethanol production and growth of EMFR9: slowed
  time to completion of ethanol production and growth of EMFR9: 96 h
[3]; 1 g l^-1 5-HMF, tube cultures, 24 h
  growth of LY180: partially inhibited

## N[C@H](CS)C(=O)O [D-cysteine]
[4]; 1 g liter^-1 furfural
  relief of furfural inhibition of growth by alternative sulfur source: effective

## NC(=O)C1=CN([C@@H]2O[C@H](COP(=O)(O)OP(=O)(O)OC[C@H]3O[C@@H](n4cnc5c(N)ncnc54)[C@H](OP(=O)(O)O)[C@@H]3O)[C@@H](O)[C@H]2O)C=CC1 [NADPH]
[5]; read-out: Km for NADPH
  Km: 8 µM
[5]; read-out: apparent Km for NADPH
  Km: 8 µM
[6]
  Km: 23 µM
[7]
  Km: 80 µM

## N=C(N)NCCC[C@H](N)C(=O)O [arginine]
[4]; 1 g liter^-1 furfural
  furfural resistance (growth of LY180) with individual amino acid: improved furfural resistance

## N[C@@H](CS)C(=O)O [cysteine, L-cysteine]
[4]; 1 g liter^-1 furfural (10 mM)
  protective concentration against furfural: 0.05 mM
[4]; 1 g liter^-1 furfural
  relief of furfural inhibition of growth by alternative sulfur source: effective
  furfural resistance (growth of LY180) with individual amino acid: improved furfural resistance
[4]; cysteine 0.01 mM
  improvement in furfural resistance: No measurable improvement
[4]; cysteine 0.05 mM, 1 g liter^-1 furfural
  density to which LY180 grew: 0.8 g/L
[3]; 100 uM cysteine, 1 g l^-1 5-HMF
  growth of LY180 with cysteine supplement: completely restored
[3]; 100 uM or 1000 uM cysteine, 2.5 g l^-1 5-HMF
  growth of LY180 with cysteine supplement: not restored
[3]; LY180
  effect of cysteine supplements on the MIC for 5-HMF: did not increase
[8]
  furfural resistance (growth of LY180) with individual amino acid: most effective

## O=Cc1ccco1 [furfural]
[9]
  furfural in mineral salts medium, by characteristic spectrum: remained unchanged
[10]; 0.5 g liter^-1 furfural, 15 min
  genes with expression altered two-fold or greater: approximately 400 genes
[10]; addition of furfural, parent LY180
  up-regulation of YqhD and DkgA (mRNA): over 5 fold
[11]
  growth of LY180 strains other than pTrc99a-pntAB forward: substantially stopped growing

## OCC(O)CO [glycerol]
[4]; glycerol 1.0 to 20 g liter^-1, data not included
  effect on furfural tolerance: no effect

## N[C@@H](Cc1c[nH]cn1)C(=O)O [histidine]
[4]; 1 g liter^-1 furfural
  furfural resistance (growth of LY180) with individual amino acid: improved furfural resistance

## CSCC[C@H](N)C(=O)O [methionine]
[4]; 1 g liter^-1 furfural
  furfural resistance (growth of LY180) with individual amino acid: improved furfural resistance

## N[C@@H](CO)C(=O)O [serine]
[4]; 1 g liter^-1 furfural
  furfural resistance (growth of LY180) with individual amino acid: improved furfural resistance

## NCCS(=O)(=O)O [taurine]
[4]; 1 g liter^-1 furfural
  relief of furfural inhibition of growth by alternative sulfur source: not effective

## O=S(O)(O)=S [thiosulfate, sodium thiosulfate]
[4]; 1 g liter^-1 furfural
  relief of furfural inhibition of growth by alternative sulfur source: effective
